Assay results: patent publication US5849709A, “Saccharopeptides and derivatives thereof” (Glycomed Incorporated, priority 1995, dated 1998)

How the values were obtained:
human recombinant bFGF = human recombinant bFGF (Homo sapiens, UniProt P09038); experiment: UC-PBA assay: binding of RO-12 UC cells to bFGF coated micro-titer wells; assay type: cell-based; details: for bFGF binding activity in the UC-PBA assay: heparin as positive control
Procedure: The effect of compositions 26 on the binding of RO-12 UC cells to bFGF coated micro-titer wells was determined as described by Ishihara, M., et al., Anal Biochem (1992) 202:310-315. (Also see U.S. Pat. No. 5,296,471, issued Mar. 22, 1994). Bound cells are readily quantitated as total protein.
The assay was run as follows: Fifty microliters of 10 μg/ml human recombinant bFGF was added to wells of a 96-well tissue culture plate and incubated overnight at 4° C. The wells were aspirated with PBS to remove any unbound bFGF, rinsed twice with PBS, and subsequently incubated with PBS containing 5% (v/v) fetal bovine serum for 1 hour at room temperature. RO-12 UC cells were suspended at a density of 3×10^6 cells/ml in PBS containing 5% fetal bovine serum. To this mixture was added the desired amount of sulfated composition, or heparin. They were made up in PBS plus 2.5% fetal bovine serum. A control was also run, containing only PBS plus 2.5% fetal bovine serum. Next, 100 μl of the cell suspension was immediately added to the microtiter wells, and incubated for 5 minutes, after which the wells were washed 3 times with PBS. Finally, the amount of cell protein bound to the wells was determined by dissolving the bound cells in 20 μl of 5% SDS and measuring the protein concentration of the cell lysates. BSA was used as the standard.
(§1) The APTT values of composition 26 were determined as described in U.S. Pat. No. 5,296,471. Table 3 lists the results for the UC-PBA assay, the ACE cell growth inhibition assay, and the APTT values respectively.

APTT = experiment: APTT
Procedure: as §1

β-glucuronidase = experiment: β-Glucuronidase inhibition assay (Sigma kit 325-A, phenolphthalein glucuronic acid substrate); assay type: biochemical; details: 15 μl of 50 mM 9β; for A550 value (β-glucuronidase assay): 550 nm, pH 4.5
Procedure: The β-glucuronidase inhibition assay is preferably performed in a solvent. Examples of the solvent include water and a suitable buffer, preferably an acetate or an AMP (2-amino-2-methyl-1-propanol) buffer. Phenolphthalein mono-β-glucuronic acid and a saccharopeptide substrate are treated with the enzyme at room temperature, at a pH of about 4-5. The reaction period ranges from 0.5-2 hours. After completion of the reaction, the enzymic reaction is stopped by adjusting the pH and the absorbance is measured at 550 nm.
Composition 9β was used to measure the β-glucuronidase activity, and the measurement was performed in the same manner as that of the conventional method.
The procedure was carried out according to instructions provided in the Sigma kit 325-A. The reagents used were provided in the kit and the proportions of the reagents used is described in the table below:
______________________________________
*0.2M sodium acetate buffer, pH 4.5 at 25° C.;
^# 30 mM phenolphthalein glucuronic acid (PGA), pH 4.5 at 25°
All components, except PGA, were pre-incubated at room temperature for 30 min, PGA was then added to the mixture. At various time points (0.5, 1 and 2h), 2 μl aliquots were removed and added to 1 ml assay diluent, mixed and absorbance read at 550 nm against the blank (A550). The assay diluent is a mixture of acetate buffer (1.44 ml), water (0.96 ml) and AMP (2-amino-2-methyl-1-propanol) buffer (12 ml, 0.1M AMP, pH 11, containing 0.2% sodium lauryl sulfate).

human recombinant bFGF, sequence (P09038 134-288): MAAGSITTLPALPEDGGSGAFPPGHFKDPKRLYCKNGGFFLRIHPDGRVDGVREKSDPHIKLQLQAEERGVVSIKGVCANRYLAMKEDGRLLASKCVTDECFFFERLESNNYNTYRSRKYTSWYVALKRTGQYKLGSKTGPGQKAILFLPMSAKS

Row | bFGF binding activity in the UC-PBA assay (human recombinant bFGF) | IC50 (human recombinant bFGF; RO-12 UC cells, bFGF coated wells) [µM] | Compound | APTT value (APTT; as described in U.S. Pat. No. 5,296,471) [%] | APTT value, comparison in words (APTT; versus other compounds of similar size) | reduction of β-glucuronidase activity (β-glucuronidase) | A550 value (β-glucuronidase assay) (β-glucuronidase; 0.5 h, room temperature (control 0.104)) | A550 value (β-glucuronidase assay) (β-glucuronidase; 1.0 h, room temperature (control 0.199)) | A550 value (β-glucuronidase assay) (β-glucuronidase; 2.0 h, room temperature (control 0.396))
1 | inhibits RO-12 UC cell binding | – | Heparin [reference compound] | – | – | – | – | – | –
2 | comparable to heparin | 0.372 | O=C(CCC(=O)N[C@@H]1O[C@H](COS(=O)(=O)O)[C@@H](O[C@H]2O[C@H](COS(=O)(=O)O)[C@@H](O[C@H]3O[C@H](COS(=O)(=O)O)[C@@H](OS(=O)(=O)O)[C@H](OS(=O)(=O)O)[C@H]3OS(=O)(=O)O)[C@H](OS(=O)(=O)O)[C@H]2OS(=O)(=O)O)[C@H](OS(=O)(=O)O)[C@H]1OS(=O)(=O)O)N[C@@H]1O[C@H](COS(=O)(=O)O)[C@@H](O[C@H]2O[C@H](COS(=O)(=O)O)[C@@H](O[C@H]3O[C@H](COS(=O)(=O)O)[C@@H](OS(=O)(=O)O)[C@H](OS(=O)(=O)O)[C@H]3OS(=O)(=O)O)[C@H](OS(=O)(=O)O)[C@H]2OS(=O)(=O)O)[C@H](OS(=O)(=O)O)[C@H]1OS(=O)(=O)O [Composition 26] | 14.2 | significantly lower than that of other compounds of similar size | – | – | – | –
3 | – | – | [N-]=[N+]=N[C@@H]1O[C@H](C(=O)N[C@@H]2O[C@H](C(=O)O)[C@@H](O)[C@H](O)[C@H]2O)[C@@H](O)[C@H](O)[C@H]1O [Composition 9β, N-(β-D-glucopyran-1-osyluronic acid)-1-azido-1-deoxy-β-D-glucopyranuronamide] | – | – | about 85% | 0.014 | 0.030 | 0.059
